The record followed here is BindingDB's records for doi:10.1016/j.bmcl.2017.04.068 (Beijing Institute of Pharmacology & Toxicology, 2017).

SMILES strings stand for the structures. pEC50: −log10 of the molar value.

The nature of this assay: Inhibition of rilpivirine-resistant HIV1 NL4-3 reverse transcriptase E138K mutant infected in human TZM-b1 cells after 2 days by bright Glo-luciferase reporter gene assay. In general terms: Reporter assays use an easily measured gene product as a stand-in for the process of interest.
For the molecule `Cc1cc(/C=C/C#N)cc(C)c1Oc1cc(Nc2ccc(C#N)cc2)c(N)cc1C(=O)OCCC#N`, the pEC50 (as a rule, −log10 of the EC50, conventionally taken in molar units) is 8.54.
As for `Cc1cc(/C=C/C#N)cc(C)c1Oc1cc(Nc2ccc(C#N)cc2)c(N)cc1C(=O)NCCCl`, the pEC50 is 8.07.
With `Cc1cc(/C=C/C#N)cc(C)c1Oc1cc(Nc2ccc(C#N)cc2)c(N)cc1C(=O)N1CC1` the figure was 8.06; with `COCCOC(=O)c1cc(N)c(Nc2ccc(C#N)cc2)cc1Oc1c(C)cc(/C=C/C#N)cc1C`, 8.34; with `Cc1cc(/C=C/C#N)cc(C)c1Oc1cc(Nc2ccc(C#N)cc2)c(N)cc1C(=O)NCCCO`, 7.64.
